In patent US8691818B2, “Cyclic triazo and diazo sodium channel blockers” (University Of Greenwich, priority 2008, dated 2014) one finds IC50, melting point and inhibition data, which are given here for 33 compounds.

Data set [1] deals with sodium channel. Briefly: [14C]guanidine flux: veratrine-evoked uptake of [14C]guanidine into rat forebrain synaptosomes (primary sodium channel assay). The data set is classed as biochemical. The settings on record: 30° for 2½ min. In a few lines:
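Synaptosomal fraction from male Wistar rat forebrain (without cerebellum/medulla), 20-25 mg wet weight/ml. Veratrine-evoked [14C]guanidine uptake at 30° for 2½ min across a compound concentration range; IC50 from concentration-effect curves, mean±sem.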

In data set [2] the target is T1, DiHydroFolate Reductase (DHFR) (Rattus norvegicus, UniProt Q920D2).
T1 construct: from tissue; host or cells: rat liver homogenate supernatant
T1 sequence (Q920D2 1-187): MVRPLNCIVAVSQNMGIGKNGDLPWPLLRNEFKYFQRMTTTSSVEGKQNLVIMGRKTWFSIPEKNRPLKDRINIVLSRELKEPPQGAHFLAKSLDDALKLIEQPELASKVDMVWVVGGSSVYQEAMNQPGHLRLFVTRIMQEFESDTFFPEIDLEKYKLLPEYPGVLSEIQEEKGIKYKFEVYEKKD
Briefly: Inhibition of binding of [3H]methotrexate to rat liver homogenate supernatant. The settings on record: for inhibition at 125 µM: read-out: [3H]mtx binding (% inhibition @ 125 μM); for inhibition at 99 µM: read-out: [3H]mtx binding % inhibition (* 99 μM, *** uses fresh batch of supernatant), 99 μM, fresh batch of supernatant. In a few lines: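 Displacement of [3H]methotrexate binding to rat liver homogenate supernatant, prepared at 4 °C in pH 6.0 phosphate buffer with 15 mM dithiothreitol. Values are mean±sem over the number of experiments shown.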

As for `COc1ccc(-c2nnc(N)nc2N)cc1OC` [CEN-115, 3,5-Diamino-6-(3,4-dimethoxyphenyl)-1,2,4-triazine], the melting point fell in the range of 288 to 290 °C. In data set [1], this compound returned a half-inhibitory concentration (IC50) of over 1000 µM. Besides, the inhibition at 125 µM in data set [2] came to 61%.

Consider `Nc1nnc(-c2c3ccccc3cc3ccccc23)c(N)n1` [CEN-118, 6-(9-Anthracenyl)-3,5-diamino-1,2,4-triazine], for which the melting point lay in the range of 350 to 352 °C. In data set [1], this compound registered an IC50 of 1150 µM. The inhibition at 125 µM in data set [2] was -7%.

`Nc1nnc(-c2cc(Br)c(Br)o2)c(N)n1` [CEN-121, 3,5-Diamino-6-[2-(4,5-dibromofuryl)]-1,2,4-triazine] returned a melting point of 272 to 275 °C. The compound further came in with an IC50 in data set [1] of over 1000 µM. Also, in data set [2], the inhibition at 125 µM is 92%.

`Nc1nnc(-c2cc(Br)c(Br)s2)c(N)n1` [CEN-122, 3,5-Diamino-6-[2-(4,5-dibromothienyl)]-1,2,4-triazine] yielded a melting point of 318 to 320 °C. In addition, in data set [1], the IC50 is over 1000 µM. In addition, in data set [2], the inhibition at 125 µM was determined as 86%.

`Nc1nnc(-c2cccc(OCc3ccccc3)c2)c(N)n1` [CEN-123, 3,5-Diamino-6-(3-Benzyloxyphenyl)-1,2,4-triazine] registered a melting point of 284 to 286 °C. Also, in data set [1], the IC50 was 41.7 µM. For the same compound, in data set [2], the inhibition at 125 µM was 86%.

The compound `Nc1nnc(-c2ccc(Br)s2)c(N)n1` [CEN-124, 3,5-Diamino-6-[2-(5-bromothienyl)]-1,2,4-triazine] had a melting point of 265 to 268 °C. The same compound had a 50% inhibitory concentration (IC50) in data set [1] of 871 µM. Also, in data set [2], the inhibition at 125 µM worked out at 90%.

On to `Nc1nnc(-c2sccc2Br)c(N)n1` [CEN-125, 3,5-Diamino-6-[2-(3-bromothienyl)]-1,2,4-triazine], for which the melting point lay within 215 to 217 °C. Further, the IC50 in data set [1] was determined as 7590 µM. In addition, the inhibition at 125 µM in data set [2] was determined as 6%.

The compound `Nc1nnc(-c2ccc(OCc3ccccc3)cc2)c(N)n1` [CEN-131, 3,5-Diamino-6-(4-Benzyloxyphenyl)-1,2,4-triazine] came in with a melting point of 205 to 207 °C. Further, in data set [1], the IC50 turned out to be 288 µM. Further, in data set [2], the inhibition at 125 µM was determined as 94%.

The compound `Nc1nnc(-c2ccccc2Cl)c(-c2ccccc2Cl)n1` [CEN-132, 3-Amino-5,6-bis(2-chlorophenyl)-1,2,4-triazine] returned a melting point of 240 to 242 °C. Besides, in data set [1], 69.2 µM corresponded to half-maximal inhibition (IC50). Also, the inhibition at 125 µM in data set [2] is 4%.

The compound `Nc1nnc(-c2ccccc2OC(F)(F)C(F)F)c(N)n1` [CEN-137, 3,5-Diamino-6-[2-(1,1,2,2-tetrafluoroethoxy)phenyl]-1,2,4-triazine] yielded a melting point of 158 to 160 °C. In data set [1], this compound showed a half-maximal inhibitory concentration (IC50) of over 2000 µM. Further, the inhibition at 125 µM in data set [2] was found to be 23%.

The compound `Nc1nnc(-c2ccc(Cl)s2)c(N)n1` [CEN-138, 3,5-Diamino-6-[2-(5-chlorothienyl)]-1,2,4-triazine] came in with a melting point of 312 to 314 °C. The compound further showed a concentration for half-maximal inhibition (IC50) in data set [1] of over 2000 µM. The inhibition at 125 µM in data set [2] was 67%.

Compound `COc1cc2ccccc2cc1-c1nnc(N)nc1N` [CEN-139] showed a melting point of 252 to 254 °C. Moreover, in data set [1], 288 µM corresponded to half-maximal inhibition (IC50). For the same compound, the inhibition at 125 µM in data set [2] was determined as 46%.

For `CCOc1cc2ccccc2cc1-c1nnc(N)nc1N` [CEN-141], the melting point is 212 to 214 °C. In data set [1], this compound showed an IC50 of 288 µM. For the same compound, in data set [2], the inhibition at 125 µM was found to be 30%.

Take `Nc1nnc(-c2ccccc2OC(F)F)c(N)n1` [CEN-142]: the melting point is 154 to 155 °C. In addition, the IC50 in data set [1] was over 2000 µM. For the same compound, the inhibition at 125 µM in data set [2] came out at 12%.

On to `COc1ccc2cc(OC)c(-c3nnc(N)nc3N)cc2c1` [CEN-143], for which the melting point was 274 to 276 °C. For the same compound, the IC50 in data set [1] was over 2000 µM. The inhibition at 125 µM in data set [2] worked out at 27%.

`Nc1nnc(-c2cccc(OCc3ccc(Cl)cc3Cl)c2)c(N)n1` [CEN-144, 3,5-Diamino-6-[3-(2,4-dichlorobenzyloxyphenyl)]-1,2,4-triazine] came in with a melting point of 164 to 166 °C. Also, half-maximal inhibition in data set [1] (IC50) required 57.5 µM. The inhibition at 125 µM in data set [2] amounted to 96%.

`Nc1nnc(C2(c3ccc(Cl)cc3)CCCCC2)c(N)n1` [CEN-145, 3,5-Diamino-6-[1-(4-chlorophenyl)-1-cyclohexyl]-1,2,4-triazine] had a melting point of 205 to 207 °C. The compound also came in with a half-maximal inhibitory concentration (IC50) in data set [1] of 9.6 µM. Further, in data set [2], the inhibition at 125 µM came to 39%.

Consider `CC(c1ccccc1)(c1ccccc1)c1nnc(N)nc1N` [CEN-147, 3,5-Diamino-6-(1,1-diphenylethyl)-1,2,4-triazine], for which the melting point is 197 to 199 °C. The compound also returned a half-inhibitory concentration (IC50) in data set [1] of 60.3 µM. Besides, the inhibition at 125 µM in data set [2] was 4%.

Consider `Nc1nnc(C2(c3ccc(Cl)cc3)CCCC2)c(N)n1` [CEN-148, 3,5-Diamino-6-[1-(4-chlorophenyl)-1-cyclopenty]-1,2,4-triazine], for which the melting point fell in the range of 184 to 186 °C. Besides, in data set [1], half-maximal inhibition (IC50) was put at 20.4 µM. The inhibition at 125 µM in data set [2] came to 38%.

The compound `COc1cc(-c2nnc(N)nc2N)c(OC)c2ccccc12` [CEN-151] showed a melting point of 142 to 144 °C. Further, the IC50 in data set [1] was 67.6 µM. For the same compound, in data set [2], the inhibition at 125 µM is 76%.

In turn, `Nc1nnc(C(c2ccccc2)(c2ccccc2)c2ccccc2)c(N)n1` [CEN-153, 3,5-Diamino-6-(triphenylmethy)-1,2,4-triazine] gave a melting point of 124 to 126 °C. Also, in data set [1], it took 50.1 µM to reach half-maximal inhibition (IC50). Moreover, the inhibition at 125 µM in data set [2] is 2%.

Consider `Nc1nnc(C2(c3ccc(Cl)cc3)CC2)c(N)n1` [CEN-154, 3,5-Diamino-6-[1-(4-chlorophenyl)-1-cyclopropyl]-1,2,4-triazine], for which the melting point was 157 to 159 °C. The IC50 in data set [1] was 162 µM. Also, the inhibition at 125 µM in data set [2] worked out at 13%.

For `Nc1nnc(-c2cccc(-c3ccccc3)c2)c(N)n1` [CEN-159, 3,5-Diamino-6-(3-phenylphenyl)-1,2,4-triazine], the melting point was 215 to 217 °C (dec.). The midpoint of inhibition in data set [1], the IC50, lay at 44 µM. The inhibition at 125 µM in data set [2] turned out to be 97%.

The compound `Nc1nnc(-c2cc(C(F)(F)F)ccc2Cl)c(N)n1` [CEN-169, 3,5-Diamino-6-(2-chloro 5 trifluoromethylphenyl)-1,2,4-triazine] displayed a melting point of 238 to 239 °C. Also, 347 µM corresponded to half-maximal inhibition in data set [1] (IC50). In data set [2], the inhibition at 125 µM stood at 95%.

For the compound `Nc1nnc(-c2cc(Cl)cc(C(F)(F)F)c2)c(N)n1` [CEN-172, 3,5-Diamino-6-(3-chloro-5-trifluoromethylphenyl)-1,2,4-triazine], the melting point lay within 249 to 251 °C. In data set [1], the IC50 came to 234 µM. Further, in data set [2], the inhibition at 125 µM worked out at 100%.

The compound `CS(=O)(=O)c1ccc(-c2nnc(N)nc2N)c(Cl)c1` [CEN-179, 3,5-Diamino-6-[2-chloro-4-(methylsulphonyl)phenyl]-1,2,4-triazine] registered a melting point of 286 to 288 °C. The IC50 in data set [1] was over 2000 µM. Besides, the inhibition at 125 µM in data set [2] is -1%.

Regarding `CC(C)(C)c1ccc(-c2nnc(N)nc2N)cc1` [CEN-181, 3,5-Diamino-6-(4-tertbutylphenyl)-1,2,4-triazine], the melting point was in the range of 275 to 276 °C. Moreover, the IC50 in data set [1] stood at 74 µM. Also, the inhibition at 125 µM in data set [2] was determined as 101%.

`CCCCc1ccc(-c2nnc(N)nc2N)cc1` [CEN-183, 3,5-Diamino-6-(4-n-butylphenyl)-1,2,4-triazine] yielded a melting point of 184 to 186 °C. The compound further returned an IC50 in data set [1] of 39 µM. Moreover, the inhibition at 125 µM in data set [2] came out at 106%.

In turn, `Nc1nnc(-c2cccc(OCc3c(Cl)cccc3Cl)c2)c(N)n1` [CEN-185, 3,5-Diamino-6-[3-(2,6-dichlorobenzyloxy)phenyl]-1,2,4-triazine] came in with a melting point of 190 to 192 °C. The compound further gave an IC50 in data set [1] of 3 µM. The inhibition at 125 µM in data set [2] turned out to be 90%.

On to `CC(C)(C)c1cc(-c2nnc(N)nc2N)cc(C(C)(C)C)c1` [CEN-187, 3,5-Diamino-6-(3,5-di-tert-butylphenyl)-1,2,4-triazine], for which the melting point fell in the range of 278 to 280 °C. In data set [1], this compound had an IC50 of 447 µM. Further, the inhibition at 125 µM in data set [2] is 99%.

Consider `COc1cc(OC)cc(-c2nnc(N)nc2N)c1` [CEN-192, 3,5-Diamino-6-(3,5-dimethoxyphenyl)-1,2,4-triazine], for which the melting point was 225 to 228 °C. Also, the IC50 in data set [1] is over 2000 µM. Besides, the inhibition at 99 µM in data set [2] turned out to be 91%.

For the compound `Nc1nnc(-c2cc(OCC(F)(F)F)cc(OCC(F)(F)F)c2)c(N)n1` [CEN-193, 3,5-Diamino-6-[3,5-bis(2,2,2-trifluoroethoxy)phenyl]-1,2,4-triazine], the melting point lay in the range of 185 to 187 °C. Further, inhibition in data set [1] was half-maximal at 135 µM (IC50). Further, the inhibition at 99 µM in data set [2] was determined as 99%.

The compound `Nc1nnc(-c2cc(C(F)(F)F)cc(Cl)c2F)c(N)n1` [CEN-197, 3,5-Diamino-6-(3-chloro-2-fluoro-5-trifluoromethylphenyl)-1,2,4-triazine] yielded a melting point of 218 to 220 °C. In data set [1], this compound gave a half-maximal inhibitory concentration (IC50) of 91 µM. For the same compound, the inhibition at 99 µM in data set [2] was found to be 95%.

For orientation: IC50 means the point on the concentration scale where inhibition reaches its midpoint. A high value points to weaker potency. As usually defined, the melting point is the temperature, or range, at which the solid turns liquid. One may read the inhibition as the relative decrease from the control value, in per cent.
